According to patent US20060258571A1, “Antibacterial ester macrocycles” (priority 2002, published 2006):
Counter-ions that a name gives are not always drawn.

Experiments:
[1] = system: S. aureus 133 Translation; test: In vitro transcription-translation with S. aureus extracts; format: biochemical; settings: S30 extract, plasmid p1a template, firefly luciferase, 30° C. 60 min
Text: (§1) In Vitro Transcription-Translation with S. aureus Extracts
(§2) Construction of an S. aureus Luciferase Reporter Plasmid
(§3) A reporter plasmid which can be used in an in vitro transcription-translation assay for S. aureus is constructed by using the plasmid pBESTluc (Promega Corporation, USA). The E. coli tac promoter present in this plasmid in front of the firefly luciferase is replaced by the capA1 promoter with appropriate Shine-Dalgarno sequence from S. aureus. The primers CAPFor 5′-CGGCCAAGCTTACTCGGAT-[…] […]-3′ and CAPRev 5′-[…]-3′ are used for this. The primer CAPFor contains the capA1 promoter, the ribosome binding site and the 5′ region of the luciferase gene. After PCR using pBESTluc as template it is possible to isolate a PCR product which contains the firefly luciferase gene with the fused capA1 promoter. This is, after restriction with ClaI and HindIII, ligated into the vector pBESTluc which has likewise been digested with ClaI and HindIII. The resulting plasmid p1a is able to replicate in E. coli and be used as template in the S. aureus in vitro transcription-translation assay.
(§4) Preparation of S30 Extracts from S. aureus
(§5) Six liters of BHI medium are inoculated with a 250 ml overnight culture of an S. aureus strain and allowed to grow at 37° C. until the OD600 nm is 2-4. The cells are harvested by centrifugation and washed in 500 ml of cold buffer A (10 mM Tris acetate, pH 8.0, 14 mM Mg acetate, 1 mM DTT, 1 M KCl). After renewed centrifugation, the cells are washed in 250 ml of cold buffer A with 50 mM KCl, and the resulting pellets are frozen at −20° C. for 60 min. The pellets are thawed on ice in 30 to 60 min and taken up to a total volume of 99 ml in buffer B (10 mM Tris acetate, pH 8.0, 20 mM Mg acetate, 1 mM DTT, 50 mM KCl). 1.5 ml portions of lysostaphin (0.8 mg/ml) in buffer B are each introduced into 3 precooled centrifuge cups and each mixed with 33 ml of the cell suspension. The samples are incubated at 37° C., shaking occasionally, for 45 to 60 min, before 150 μl of a 0.5 M DTT solution are added. The lyzed cells are centrifuged at 30 000×g and 4° C. for 30 min. The cell pellet is taken up in buffer B and then centrifuged again under the same conditions, and the collected supernatants are combined. […]
(§6) Inhibition of protein biosynthesis of the compounds can be shown in an in vitro transcription-translation assay. […] The activity of the resulting luciferase can be detected by luminescence measurement. […]

[2] = system: E. coli MRE600 Translation; test: In vitro transcription-translation with E. coli extracts; format: biochemical, Escherichia coli; settings: S30 extract, pBESTLuc template, firefly luciferase, 30° C. 60 min
Procedure: In Vitro Transcription-Translation with E. coli Extracts
An S30 extract is prepared by harvesting logarithmically growing Escherichia coli MRE 600 (M. Müller; University Freiburg), washing and employing them as described for the in vitro transcription-translation assay (Müller, M. and Blobel, G. Proc Natl Acad Sci USA (1984) 81, pp. 7421-7425).
1 μl of cAMP (11.25 mg/ml) are additionally added per 50 μl of reaction mix to the reaction mix for the in vitro transcription-translation assay. The assay mixture amounts to 105 μl, with 5 μl of the substance to be tested being introduced in 5% strength DMSO. 1 μg/100 pt of mixture of the plasmid pBESTLuc (Promega, Germany) are used as transcription template. After incubation at 30° C. for 60 min, 50 pt of luciferin solution (20 mM tricine, 2.67 mM MgSO4, 0.1 mM EDTA, 33.3 mM DTT pH 7.8, 270 μM CoA, 470 μM luciferin, 530 μM ATP) are added, and the resulting bioluminescence is measured in a luminometer for 1 minute. The IC50 is indicated by the concentration of an inhibitor which leads to 50% inhibition of the translation of firefly luciferase.

S. aureus 133 = test: Minimum inhibitory concentration (MIC), liquid dilution test; format: cell-based; settings: minimal medium with 0.4% BH broth, 37° C., 18-24 h
Text: (§7) Determination of the Minimum Inhibitory Concentration (MIC):
(§8) The inhibitor concentration can in these cases be determined by standard microbiological methods (see, for example, The National Committee for Clinical Laboratory Standards. Methods for dilution antimicrobial susceptibility tests for bacteria that grow aerobically; approved standard-fifth edition. NCCLS document M7-A5 [ISBN 1-56238-394-9]. NCCLS, 940 West Valley Road, Suite 1400, Wayne, Pa. 19087-1898 USA, 2000). The MIC of the compounds of the invention is determined in the liquid dilution test on the 96-well microtiter plate scale. The bacterial microbes are cultivated in a minimal medium (18.5 mM Na2HPO4, 5.7 mM KH2PO4, 9.3 mM NH4Cl, 2.8 mM MgSO4, 17.1 mM NaCl, 0.033 μg/ml thiamine hydrochloride, 1.2 μg/ml nicotinic acid, 0.003 μg/ml biotin, 1% glucose, 25 μg/ml of each proteinogenic amino acid with the exception of phenylalanine; [H.-P. Kroll; unpublished]) with addition of 0.4% BH broth (test medium). In the case of Enterococcus faecalis ICB 27159, heat-inactivated fetal calf serum (FCS; GibcoBRL, Germany) is added to the test medium in a final concentration of 10%. Overnight cultures of the test microbes are diluted to an OD578 of 0.001 (to 0.01 in the case of Enterococci) in fresh test medium, and incubated 1:1 with dilutions of the test substances (1:2 dilution steps) in test medium (150 μl final volume). The cultures are incubated at 37° C. for 18-24 hours; Enterococci in the presence of 5% CO2.
(§9) The lowest substance concentration in each case at which bacterial growth was no longer visible is defined as the MIC. […] The compounds show a graded antibacterial effect against most of the test microbes.

B. catarrhalis M3 = test: as above; format: cell-based; settings: Moraxella catarrhalis, minimal medium with 0.4% BH broth, 37° C., 18-24 h
Text: as §7, §8, §9

[3] = system: S. aureus RN4220 Translation; test: In vitro transcription-translation with S. aureus extracts; format: biochemical; settings: S30 extract, plasmid p1a template, firefly luciferase, 30° C. 60 min
Text: as §1, §2, §3, §4, §5, §6

S. aureus RN4220 = test: Minimum inhibitory concentration (MIC), liquid dilution test; format: cell-based; settings: Staphylococcus aureus, minimal medium with 0.4% BH broth, 37° C., 18-24 h
Text: as §7, §8, §9

[4] = system: Enterococcus faecalis ICB 27159; test: as above; format: cell-based; settings: ICB27159, test medium with 10% heat-inactivated FCS, 5% CO2, 37° C., 18-24 h, read-out: MIC E. faecalis ICB 27159
Text: as §7, §8, §9

S. aureus 25701 = test: as above; format: cell-based; settings: Staphylococcus aureus, minimal medium with 0.4% BH broth, 37° C., 18-24 h
Text: as §7, §8, §9

Compound | IC50 [1] [µM] | IC50 [2] [µM] | MIC (S. aureus 133; Staphylococcus aureus, 133) [µM] | MIC (B. catarrhalis M3) [µM] | IC50 [3] [µM] | MIC (S. aureus RN4220) [µM] | MIC [4] [µM] | MIC (S. aureus 25701) [µM] | MIC (S. aureus 133) [µM]
CCOC(=O)[C@@H]1Cc2cc(ccc2O)-c2ccc(O)c(c2)C[C@H](N)C(=O)N[C@@H](C[C@@H](O)CN)C(=O)N1 [Example 2, Ethyl(8S,11S,14S)-14-amino-11-[(2R)-3-amino-2-hydroxypropyl]-5,17-dihydroxy-10,13-dioxo-9,12-diazatricyclo[14.3.1.1^2,6]henicosa-1(20),2(21),3,5,16,18-hexaene-8-carboxylate dihydrochloride] | 2.4 to 4.3 | 0.2 | 0.78 | 6.25 | – | – | – | – | –
COC(=O)[C@@H]1Cc2cc(ccc2O)-c2ccc(O)c(c2)C[C@H](N)C(=O)N[C@@H](C[C@@H](O)CN)C(=O)N1 [Example 1, Methyl(8S,11S,14S)-14-amino-11-[(2R)-3-amino-2-hydroxypropyl]-5,17-dihydroxy-10,13-dioxo-9,12-diazatricyclo[14.3.1.1^2,6]henicosa-1(20),2(21),3,5,16,18-hexaene-8-carboxylate dihydrochloride] | 0.5 to 3 | 0.5 | 3.13 | 1.56 | 1.7 | 0.4 | 1.56 | 12.5 | –
2-Aminoethyl-(8S,11S,14S)-14-amino-11-[(2R)-3-amino-2-hydroxypropyl]-5,17-dihydroxy-9-methyl-10,13-dioxo-9,12-diazatricyclo[14.3.1.1^2,6]henicosa-1(20),2(21),3,5,16,18-hexaene-8-carboxylate trihydrochloride [Example 10] | 0.7 | – | – | – | – | – | – | – | 3.1
